Values joined by “and” are separate entries in the source; they are usually repeats but may differ in a detail not shown here. Identical values can stand only once.

The results in this text go back to US20040208782A1, “Composition and process for chemical and thermal disinfection” (priority 2003, published 2004).

Data set [1] can be described thus: Stoppered cylinder foam test (Test 3). It counts as physicochemical. To be noted: 0.1% by weight aqueous solution, room temperature. Here is the method: The test is used for qualitative assessment of the foaming behaviour of solutions.
The solution to be tested is introduced, avoiding foaming as far as possible, up to the 30 ml mark in a 100 ml measuring cylinder (graduated). It is advisable to hold the cylinder at an angle and allow the solution to run slowly down the wall of the mixing cylinder. The stopper is then inserted.
If foam has nevertheless formed when introducing the solution, the test is not carried out until the foam has completely disappeared. The stoppered cylinder is shaken vigorously 10×, and the stopclock is started. The total volume of solution and foam is then read off in ml after previously specified times.
Test 3 at Room Temperature

Data set [2] can be described thus: Solubility in water. It counts as physicochemical.
For data set [3], the system named is Mycobacterium terrae (ATCC15755). Nature of the data set: Mycobacterium terrae quantitative suspension test (Test 2), reduction factors. The format is cell-based. To be noted: for activity for Mycobacterium terrae (in words): 0.1% by weight; for reduction factor: Example 4, 0.1% by weight.
For data set [4], the system named is bacteria, fungi and mycobacteria. As to the kind of experiment: Quantitative suspension test, overall spectrum of activity (result statements). The format is cell-based. To be noted: 0.1% by weight.

`CCCCCCCCOCC(O)CO` (stereo not shown) [1-(n-octyl)glycerol ether]: the “foaming behaviour (in words)” value in data set [1] is reported as “pronounced foaming”. In data set [2], the solubility in water was < 0.2 % by weight and > 0.1 % by weight.
For `CCCCC(CC)COCC(O)CO` (stereo not shown) [SC 50, 1-(2-Ethylhexyl)glycerol ether], in data set [1], the “foaming behaviour (in words)” value is “virtually no foam”. The same molecule yielded a solubility in water in data set [2] of 0.18 % by weight. Besides, the “activity for Mycobacterium terrae (in words)” value in data set [3] (50° C.) is “active”; in data set [3] (room temperature, only at 60 minutes in 30% by weight ethanol solution), “good activity”. Moreover, the “activity (in words)” value in data set [3] (0.1% strength or 0.05% strength aqueous solution, elevated temperature (e.g. 60° C.)) is given as “excellent activity”. Besides, the reduction factor in data set [3] (50° C., action for 15′) is recorded as 4.80; in data set [3] (50° C., action for 30′), 4.66; in data set [3] (50° C., action for 60′) it was 5.52. For the same molecule, in data set [3] (above room temperature, alkaline range), the “activity on Mycobacterium terrae (in words)” value is recorded as “excellent activity”. Further, the “antimicrobial activity (in words)” value in data set [4] (50° C., gram-positive and gram-negative bacteria, yeasts and mycobacteria) is “broad activity”; in data set [4] (low temperature), “virtually no antimicrobial activity”.
